Laboratory results taken from patent US20110263594A1, “NOVEL TRIAZOLO(4,3-A)PYRIDINE DERIVATIVES, PROCESS FOR THE PREPARATION THEREOF, USE THEREOF AS MEDICAMENTS, PHARMACEUTICAL COMPOSITIONS AND NOVEL USE, IN PARTICULAR AS MET INHIBITORS” (SANOFI-AVENTIS, priority 2008, published 2011).

Tests used:
MET [1] = biological target: T1, MET (Homo sapiens, UniProt P08581); experiment: Test A: HTRF MET assay in 96-well format; assay type: biochemical; set-up: The His-Tev-MET (956-1390) recombinant DNA in pFastBac (Invitrogen) is transfected into insect cells; His-Tev (histidine tag with TEV cleavage site) (N, cleaved yes); made in house; host or cells: SF21 insect cells (baculovirus, pFastBac); settings: MET 5 nM, 10 μM ATP, poly-(GAT)
Method: The His-Tev-MET (956-1390) recombinant DNA in pFastBac (Invitrogen) is transfected into insect cells and, after several viral amplification steps, the final baculovirus stock is tested for the expression of the protein of interest.
After infection for 72 h at 27° C. with the recombinant virus, SF21 cell cultures are harvested by centrifugation and the cell pellets are stored at −80° C.
The cell pellets are resuspended in the lysis buffer (buffer A [50 mM HEPES, pH 7.5, 250 mM NaCl, 10% glycerol, 1 mM TECP]; +cocktail of protease inhibitors, Roche Diagnostics, without EDTA, ref 1873580), stirred at 4° C. until the mixture is homogeneous, and then lysed mechanically using a “Dounce” type apparatus.
After centrifugation, the lysis supernatant is incubated for 2 h at 4° C. with nickel chelate resin (His-Trap 6 Fast Flow™, GE HealthCare). After washing with 20 volumes of buffer A, the suspension is packed into a column, and the proteins are eluted with a gradient of buffer B (buffer A+290 mM imidazole).
The fractions containing the protein of interest, for the purpose of electrophoretic analysis (SDS PAGE), are combined, concentrated by ultrafiltration (10 kDa cut-off) and injected onto an exclusion chromatography column (Superdex™ 200, GE HealthCare) equilibrated in buffer A.
After enzymatic cleavage of the histidine tag, the protein is reinjected onto a new IMAC nickel chelate chromatography column (His-Trap 6 Fast Flow™, GE HealthCare) equilibrated in buffer A. The fractions eluted with a gradient of buffer B and containing the protein of interest after electrophoresis (SDS PAGE) are finally combined and stored at −80° C.
For the production of autophosphorylated protein, the previous fractions are incubated for 1 h at ambient temperature after the addition of 2 mM ATP, 2 mM MgCl2 and 4 mM Na3VO4. After the reaction has been stopped with 5 mM of EDTA, the reaction mixture is injected onto a HiPrep desalifying column (GE HealthCare) pre-equilibrated in buffer A+4 mM Na3VO4, and the fractions containing the protein of interest (SDS PAGE analysis) are combined and stored at −80° C. The degree of phosphorylation is verified by mass spectrometry (LC-MS) and by peptide mapping.
MET at a final concentration of 5 nM is incubated in a final volume of 50 μl of enzymatic reaction in the presence of the test molecule (for a final concentration range of from 0.17 nM to 10 μM, 3% DMSO final concentration) in 10 mM MOPS buffer, pH 7.4, 1 mM DTT, 0.01% Tween 20. The reaction is initiated with the substrate solution to obtain final concentrations of 1 μg/ml poly-(GAT), 10 μM ATP and 5 mM MgCl2. After incubation for 10 min at ambient temperature, the reaction is stopped with a 30 μl mix so as to obtain a final solution of 50 mM Hepes, pH 7.5, 500 mM potassium fluoride, 0.1% BSA and 133 mM EDTA in the presence of 80 ng of streptavidin 61SAXLB Cis-Bio Int. and 18 ng of anti-phosphotyrosine Mab PT66-Europium Cryptate per well. After incubation for 2 hours at ambient temperature, the reading is taken at 2 wavelengths, 620 nm and 665 nm, on a reader for the TRACE/HTRF technique, and the % inhibition is calculated from the 665/620 ratios.
Target sequence in this assay (P08581 956-1390): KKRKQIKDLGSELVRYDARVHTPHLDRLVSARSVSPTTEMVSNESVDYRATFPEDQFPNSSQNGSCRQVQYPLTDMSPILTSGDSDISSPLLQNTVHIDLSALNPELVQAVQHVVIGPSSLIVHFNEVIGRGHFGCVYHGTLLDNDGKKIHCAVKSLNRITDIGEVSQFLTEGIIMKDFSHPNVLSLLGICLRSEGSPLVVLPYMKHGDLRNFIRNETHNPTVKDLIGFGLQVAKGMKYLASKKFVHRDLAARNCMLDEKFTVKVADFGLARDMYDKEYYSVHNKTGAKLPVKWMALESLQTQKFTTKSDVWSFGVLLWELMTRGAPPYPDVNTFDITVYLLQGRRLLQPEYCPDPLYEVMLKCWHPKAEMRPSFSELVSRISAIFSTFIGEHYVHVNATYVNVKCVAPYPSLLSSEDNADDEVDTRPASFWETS

MET [2] = biological target: T1, MET; experiment: Test B: inhibition of the autophosphorylation of MET, ELISA technique (pppY1230,1234,1235) in MKN45 cells; assay type: cell-based; set-up: endogenous in cells; host or cells: MKN45 cells; settings: 1 h treatment, phosphoMET ELISA
Method: B) Test B: Inhibition of the autophosphorylation of MET; ELISA technique (pppY1230,1234,1235) a) Cell lysates: MKN45 cells are seeded into 96-well plates (cell coat BD polylysine) at 20 000 cells/well in 200 μl in RPMI medium+10% FCS+1% L-glutamine. They are left to adhere for 24 hours in an incubator.
The cells are treated the day after seeding with the products at 6 concentrations, in duplicate, for 1 h. At least 3 control wells are treated with the same final amount of DMSO.
Product dilution: Stock at 10 mM in pure DMSO—range from 10 mM to 30 μM with an increment of 3 in pure DMSO—intermediate dilutions to 1/50 in culture medium and then removal of 10 μl added directly to the cells (200 μl): final range of 10 000 to 30 nM.
At the end of the incubation, the supernatant is carefully removed and rinsing is performed with 200 μl of PBS. Next, 100 μl of lysis buffer are placed directly in the wells on ice and incubated at 4° C. for 30 minutes. Lysis buffer: 10 mM Tris HCl, pH 7.4, 100 mM NaCl, 1 mM EDTA, 1 mM EGTA, 1% Triton X-100, 10% glycerol, 0.1% SDS, 0.5% deoxycholate, 20 mM NaF, 2 mM Na3VO4, 1 mM PMSF and cocktail of antiproteases.
The 100 μl of lysates are transferred into a V-bottomed polypropylene plate and the ELISA is performed immediately, or the plate is frozen at −80° C.
70 μl of kit dilution buffer+30 μL of cell lysate, or 30 μl of lysis buffer for the blanks, are added to each well of the kit plate. Incubation is carried out for 2 h with gentle agitation at ambient temperature.
The wells are rinsed 4 times with 400 μl of kit washing buffer. Incubation is carried out with 100 μl of anti-phospho MET antibody for 1 hour at ambient temperature.
The wells are rinsed 4 times with 400 μl of kit washing buffer. Incubation is carried out with 100 μl of anti-rabbit HRP antibody for 30 minutes at ambient temperature (except for the wells of chromogen alone).
The wells are rinsed 4 times with 400 μl of kit washing buffer. 100 μL of chromogen are introduced and incubation is carried out for 30 minutes in the dark at ambient temperature.
The reaction is stopped with 100 μl of stop solution. The plate is read without delay at […], 0.1 second on a Wallac Victor plate reader.
Target sequence in this assay (P08581 25-1390): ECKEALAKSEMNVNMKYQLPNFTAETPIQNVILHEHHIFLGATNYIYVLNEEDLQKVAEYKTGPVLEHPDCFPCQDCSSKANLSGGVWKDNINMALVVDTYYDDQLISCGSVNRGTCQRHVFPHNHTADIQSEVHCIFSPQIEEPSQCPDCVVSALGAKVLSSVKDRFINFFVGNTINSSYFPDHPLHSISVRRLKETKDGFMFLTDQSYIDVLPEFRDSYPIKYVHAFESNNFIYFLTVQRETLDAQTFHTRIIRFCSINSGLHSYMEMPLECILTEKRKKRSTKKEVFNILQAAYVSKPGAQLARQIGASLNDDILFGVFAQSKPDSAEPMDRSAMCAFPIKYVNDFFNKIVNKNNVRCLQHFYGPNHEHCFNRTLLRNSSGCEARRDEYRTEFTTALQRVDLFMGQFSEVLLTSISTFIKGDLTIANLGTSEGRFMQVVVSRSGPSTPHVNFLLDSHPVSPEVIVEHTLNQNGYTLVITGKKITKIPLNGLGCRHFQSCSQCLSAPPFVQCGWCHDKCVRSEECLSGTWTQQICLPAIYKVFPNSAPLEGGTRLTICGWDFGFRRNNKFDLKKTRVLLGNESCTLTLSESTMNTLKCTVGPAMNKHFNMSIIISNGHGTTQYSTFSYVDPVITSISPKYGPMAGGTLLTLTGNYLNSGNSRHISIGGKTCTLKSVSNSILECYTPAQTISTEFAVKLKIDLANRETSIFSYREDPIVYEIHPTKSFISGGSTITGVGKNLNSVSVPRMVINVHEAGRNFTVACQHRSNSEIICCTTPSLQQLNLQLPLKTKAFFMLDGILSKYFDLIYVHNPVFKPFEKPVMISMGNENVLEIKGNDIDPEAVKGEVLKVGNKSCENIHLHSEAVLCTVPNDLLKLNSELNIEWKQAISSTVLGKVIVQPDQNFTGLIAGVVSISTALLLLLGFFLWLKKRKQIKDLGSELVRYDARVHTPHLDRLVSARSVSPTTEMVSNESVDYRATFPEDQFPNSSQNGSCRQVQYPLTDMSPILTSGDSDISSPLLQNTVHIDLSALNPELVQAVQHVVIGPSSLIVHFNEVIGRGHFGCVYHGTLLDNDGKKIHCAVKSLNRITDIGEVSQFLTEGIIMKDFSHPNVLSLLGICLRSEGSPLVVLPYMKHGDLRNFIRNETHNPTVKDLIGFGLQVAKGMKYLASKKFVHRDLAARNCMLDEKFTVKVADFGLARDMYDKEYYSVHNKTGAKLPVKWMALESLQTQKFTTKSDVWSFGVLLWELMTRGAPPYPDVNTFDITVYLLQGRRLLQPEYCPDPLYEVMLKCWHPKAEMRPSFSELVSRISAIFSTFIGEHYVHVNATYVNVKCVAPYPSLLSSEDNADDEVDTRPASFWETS

[3] = tested on: HCT116 cells and MKN45 cells; experiment: Test C: measurement of cell proliferation by 14C-thymidine pulse; assay type: cell-based; settings: 14C-thymidine incorporation, 96 h of treatment; cell line not given
Method: The cells are seeded into Cytostar 96-well plates in 180 μl for 4 hours at 37° C. and 5% CO2: HCT116 cells in a proportion of 2500 cells per well in DMEM medium+10% foetal calf serum+1% L-glutamine, and MKN45 cells in a proportion of 7500 cells per well in RPMI medium+10% foetal calf serum+1% L-glutamine. After these 4 hours of incubation, the products are added in 10 μl as a […] concentrated solution according to the dilution method mentioned for the ELISA. The products are tested at 10 concentrations in duplicate from 10 000 nM to 0.3 nM with an increment of 3.
After treatment for 72 h, 10 μl of ^14C-thymidine at 10 μCi/ml are added so as to obtain 0.1 μCi per well. The ^14C-thymidine incorporation is measured on a Micro-Beta machine (Perkin-Elmer) after 24 hours of pulse and 96 h of treatment.
All the steps of the assay are automated on BIOMEK 2000 or TECAN stations.

Which results are given for O=C(NCCN1CCOCC1)Nc1nc2ccc(Sc3nnc4ccccn34)cc2s1 [Example 3, 1-[2-(morpholin-4-yl)ethyl]-3-[6-([1,2,4]triazolo[4,3-a]pyridin-3-ylsulphanyl)-1,3-benzothiazol-2-yl]urea]?
melting point: 204 to 207 °C; IC50 (MET [1]): < 100 nM; IC50 (MET [2]): < 100 nM; IC50 [3]: < 1000 nM

For CN1CCN(CCNC(=O)Nc2nc3ccc(Sc4nnc5ccccn45)cc3s2)CC1 [Example 4, 1-[2-(4-methylpiperazin-1-yl)ethyl]-3-[6-([1,2,4]triazolo[4,3-a]pyridin-3-ylsulphanyl)-1,3-benzothiazol-2-yl]urea], which melting point is on record?
The melting point was 180 to 185 °C.

What about the IC50 (MET [1]) of the same compound?
Its IC50 is < 100 nM.

And the IC50 (MET [2])?
The IC50 was < 100 nM.

What about the IC50 [3] of the same compound?
The IC50 was < 1000 nM.

With COCCNC(=O)Nc1nc2ccc(Sc3nnc4ccccn34)cc2s1 [Example 5, 1-(2-methoxyethyl)-3-[6-([1,2,4]triazolo[4,3-a]pyridin-3-ylsulphanyl)-1,3-benzothiazol-2-yl]urea] as the compound, how does the melting point read?
The melting point was 252 to 257 °C.

What about the IC50 (MET [1]) of the same compound?
The IC50 was < 100 nM.

And the IC50 (MET [2])?
Its IC50 is < 100 nM.

What about the IC50 [3] of the same compound?
Its IC50 is < 1000 nM.
